Assay results reported in patent US20110230481A2, “DERIVATIVES OF TETRABROMOBENZIMIDAZOLE, A PROCESS FOR THE PREPARATION THEREOF, A PHARMACEUTICAL COMPOSITION COMPRISING THE SAME, A METHOD OF USING THE SAME, A METHOD FOR MODULATING OR REGULATING SERINE/THREONINE KINASES, AND SERINE/THREONINE KINASES MODULATING AGENT” (SELVITA S.A., priority 2009, published 2011).

What was measured:
Test in all cases: KINOMEscan Max
Assay type in all cases: binding
[1] = molecular target: T1, AAK1 (Homo sapiens, UniProt Q2M2I8)
T1 construct: purchased Ambit Kinomescan (contract screening)
Procedure, shortened: (§1)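 In this platform each kinase carries a DNA tag and is offered an immobilized ligand aimed at the active site; test compound competes for binding, and the amount of kinase held on the ligand is measured by qPCR.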

[2] = molecular target: T2, ABL1(F317I)-nonphosphorylated (Homo sapiens, UniProt P00519, F317I)
T2 construct: purchased Ambit (KINOMEscan Max service)
Procedure, shortened: as §1

[3] = molecular target: ABL1(H396P)nonphosphorylated (Homo sapiens, UniProt P00519, H396P)
Procedure, shortened: as §1

[4] = molecular target: T3, BRAF (Homo sapiens, UniProt P15056)
T3 construct: DNA tag (qPCR label); purchased Ambit Kinomescan (contract screening)
Procedure, shortened: as §1

[5] = molecular target: T4, BTK (Homo sapiens, UniProt Q06187); conditions: 1 μM
T4 construct: purchased Ambit (KINOMEscan Max service)
Procedure, shortened: as §1

[6] = molecular target: T5, CDC2L5 (Homo sapiens, UniProt Q14004); conditions: 1 μM
T5 construct: DNA tag (qPCR read-out); purchased Ambit Kinomescan
Procedure, shortened: as §1

[7] = molecular target: CHEK2 (Homo sapiens, UniProt O96017)
Procedure, shortened: as §1

[8] = molecular target: T6, DAPK2 (Homo sapiens, UniProt Q9UIK4)
T6 construct: DNA tag (qPCR read-out)
Procedure, shortened: as §1

[9] = molecular target: DCAMKL1 (Homo sapiens, UniProt O15075); conditions: 1 μM
Procedure, shortened: as §1

[10] = molecular target: T7, DCAMKL2 (Homo sapiens, UniProt Q8N568)
T7 construct: purchased Ambit (KINOMEscan Max panel service)
Procedure, shortened: as §1

[11] = molecular target: DRAK1 (Homo sapiens, UniProt Q9UEE5)
Procedure, shortened: as §1

[12] = molecular target: T8, DYRK2 (Homo sapiens, UniProt Q92630)
T8 construct: DNA tag (qPCR read-out); purchased Ambit Kinomescan
Procedure, shortened: as §1

[13] = molecular target: T9, EGFR (Homo sapiens, UniProt P00533); conditions: 1 μM
T9 construct: purchased Ambit (KINOMEscan Max panel service)
Procedure, shortened: as §1

[14] = molecular target: T10, EGFR(G719S) (Homo sapiens, UniProt P00533, G719S); conditions: 1 μM
T10 construct: purchased Ambit (KINOMEscan Max panel service)
Procedure, shortened: as §1

[15] = molecular target: T11, ERK5 (Homo sapiens, UniProt Q13164)
T11 construct: purchased Ambit Kinomescan (contract panel, KINOMEscan Max)
Procedure, shortened: as §1

[16] = molecular target: T12, HUNK (Homo sapiens, UniProt P57058)
T12 construct: purchased Ambit Kinomescan (contract panel, KINOMEscan Max)
Procedure, shortened: as §1

[17] = molecular target: T13, INSRR (Homo sapiens, UniProt P14616)
T13 construct: purchased Ambit Kinomescan (contract panel, KINOMEscan Max)
Procedure, shortened: as §1

[18] = molecular target: T14, IRAK1 (Homo sapiens, UniProt P51617)
T14 construct: DNA tag (qPCR read-out)
Procedure, shortened: as §1

[19] = molecular target: MAP4K2 (Homo sapiens, UniProt Q12851)
Procedure, shortened: as §1

[20] = molecular target: T15, MARK4 (Homo sapiens, UniProt Q96L34); conditions: 1 μM
T15 construct: purchased Ambit (KINOMEscan Max service)
Procedure, shortened: as §1

[21] = molecular target: T16, MET(M1250T) (Homo sapiens, UniProt P08581, M1250T); conditions: 1 μM
T16 construct: DNA tag (qPCR read-out)
Procedure, shortened: as §1

[22] = molecular target: MST1R (Homo sapiens, UniProt Q04912)
Procedure, shortened: as §1

[23] = molecular target: MTOR (Homo sapiens, UniProt P42345)
Procedure, shortened: as §1

[24] = molecular target: T17, MUSK (Homo sapiens, UniProt O15146)
T17 construct: purchased Ambit Kinomescan (contract screening)
Procedure, shortened: as §1

[25] = molecular target: T18, NEK11 (Homo sapiens, UniProt Q8NG66)
T18 construct: DNA tag (qPCR read-out)
Procedure, shortened: as §1

[26] = molecular target: NEK2 (Homo sapiens, UniProt P51955)
Procedure, shortened: as §1

[27] = molecular target: NLK (Homo sapiens, UniProt Q9UBE8)
Procedure, shortened: as §1

[28] = molecular target: T19, PAK4 (Homo sapiens, UniProt O96013)
T19 construct: purchased Ambit (KINOMEscan Max service)
Procedure, shortened: as §1

[29] = molecular target: PHKG1 (Homo sapiens, UniProt Q16816)
Procedure, shortened: as §1

[30] = molecular target: PRKCQ (Homo sapiens, UniProt Q04759)
Procedure, shortened: as §1

[31] = molecular target: T20, PRKX (Homo sapiens, UniProt P51817)
T20 construct: DNA tag (qPCR read-out)
Procedure, shortened: as §1

[32] = molecular target: T21, QSK (Homo sapiens, UniProt Q9Y2K2); conditions: 1 μM
T21 construct: DNA tag (qPCR read-out)
Procedure, shortened: as §1

[33] = molecular target: T22, RIPK2 (Homo sapiens, UniProt O43353)
T22 construct: DNA tag (qPCR read-out)
Procedure, shortened: as §1

[34] = molecular target: T23, STK16 (Homo sapiens, UniProt O75716)
T23 construct: DNA tag (qPCR read-out)
Procedure, shortened: as §1

[35] = molecular target: T24, YANK1 (Homo sapiens, UniProt Q8WU08)
T24 construct: purchased Ambit Kinomescan (contract screening service)
Procedure, shortened: as §1

T5 sequence (Q14004 whole entry): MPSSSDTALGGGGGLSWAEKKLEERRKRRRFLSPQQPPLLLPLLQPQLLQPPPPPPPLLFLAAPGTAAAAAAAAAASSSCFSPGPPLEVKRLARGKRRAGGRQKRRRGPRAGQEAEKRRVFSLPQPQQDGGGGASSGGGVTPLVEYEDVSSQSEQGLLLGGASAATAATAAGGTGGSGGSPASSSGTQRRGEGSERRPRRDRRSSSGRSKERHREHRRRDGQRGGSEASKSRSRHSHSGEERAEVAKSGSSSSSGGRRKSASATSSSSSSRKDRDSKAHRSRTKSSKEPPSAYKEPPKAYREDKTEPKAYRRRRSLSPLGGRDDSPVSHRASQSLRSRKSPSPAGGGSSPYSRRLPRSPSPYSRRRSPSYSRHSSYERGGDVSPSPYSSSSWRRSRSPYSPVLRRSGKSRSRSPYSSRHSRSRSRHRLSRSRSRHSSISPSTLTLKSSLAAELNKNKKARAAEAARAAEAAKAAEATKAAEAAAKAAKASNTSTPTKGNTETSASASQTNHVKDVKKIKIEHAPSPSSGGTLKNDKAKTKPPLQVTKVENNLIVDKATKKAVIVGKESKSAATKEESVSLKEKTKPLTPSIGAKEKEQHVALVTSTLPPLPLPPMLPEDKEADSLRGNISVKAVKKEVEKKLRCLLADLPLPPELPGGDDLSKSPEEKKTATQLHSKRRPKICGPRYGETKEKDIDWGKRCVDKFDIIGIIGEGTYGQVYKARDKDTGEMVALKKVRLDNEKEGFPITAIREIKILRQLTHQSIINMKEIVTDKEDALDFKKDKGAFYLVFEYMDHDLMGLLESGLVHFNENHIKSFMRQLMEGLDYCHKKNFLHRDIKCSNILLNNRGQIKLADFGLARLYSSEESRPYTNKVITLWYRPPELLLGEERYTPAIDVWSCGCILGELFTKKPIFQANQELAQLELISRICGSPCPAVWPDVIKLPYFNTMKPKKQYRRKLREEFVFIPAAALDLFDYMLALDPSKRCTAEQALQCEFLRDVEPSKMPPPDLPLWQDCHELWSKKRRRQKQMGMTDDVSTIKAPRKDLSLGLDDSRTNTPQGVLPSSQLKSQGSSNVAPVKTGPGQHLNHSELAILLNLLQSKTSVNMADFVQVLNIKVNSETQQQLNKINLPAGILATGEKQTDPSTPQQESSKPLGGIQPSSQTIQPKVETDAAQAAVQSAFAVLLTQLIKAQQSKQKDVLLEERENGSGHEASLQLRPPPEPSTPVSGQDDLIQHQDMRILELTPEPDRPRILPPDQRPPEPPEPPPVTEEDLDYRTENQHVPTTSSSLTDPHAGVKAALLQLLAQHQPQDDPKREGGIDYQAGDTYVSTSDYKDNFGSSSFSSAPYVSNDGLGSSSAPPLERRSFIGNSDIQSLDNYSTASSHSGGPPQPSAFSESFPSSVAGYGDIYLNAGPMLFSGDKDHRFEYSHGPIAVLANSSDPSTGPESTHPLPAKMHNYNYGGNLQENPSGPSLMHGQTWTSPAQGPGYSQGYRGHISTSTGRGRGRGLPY
T22 sequence (O43353 whole entry): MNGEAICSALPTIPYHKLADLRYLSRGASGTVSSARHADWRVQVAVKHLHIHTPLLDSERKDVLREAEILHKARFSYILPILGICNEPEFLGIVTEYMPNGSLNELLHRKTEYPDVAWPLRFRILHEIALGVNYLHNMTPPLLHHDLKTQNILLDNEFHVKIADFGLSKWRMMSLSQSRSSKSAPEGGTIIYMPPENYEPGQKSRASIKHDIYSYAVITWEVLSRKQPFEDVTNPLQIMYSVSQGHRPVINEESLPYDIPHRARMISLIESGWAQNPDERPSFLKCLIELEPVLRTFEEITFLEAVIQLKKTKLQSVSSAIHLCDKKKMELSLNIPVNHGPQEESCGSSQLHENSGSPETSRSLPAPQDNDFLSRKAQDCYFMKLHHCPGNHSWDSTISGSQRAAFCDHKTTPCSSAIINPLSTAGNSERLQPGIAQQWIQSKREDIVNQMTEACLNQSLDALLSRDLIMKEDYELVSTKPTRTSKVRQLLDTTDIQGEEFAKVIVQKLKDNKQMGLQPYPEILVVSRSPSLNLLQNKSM
Chain of DRAK1 (Q9UEE5 whole entry): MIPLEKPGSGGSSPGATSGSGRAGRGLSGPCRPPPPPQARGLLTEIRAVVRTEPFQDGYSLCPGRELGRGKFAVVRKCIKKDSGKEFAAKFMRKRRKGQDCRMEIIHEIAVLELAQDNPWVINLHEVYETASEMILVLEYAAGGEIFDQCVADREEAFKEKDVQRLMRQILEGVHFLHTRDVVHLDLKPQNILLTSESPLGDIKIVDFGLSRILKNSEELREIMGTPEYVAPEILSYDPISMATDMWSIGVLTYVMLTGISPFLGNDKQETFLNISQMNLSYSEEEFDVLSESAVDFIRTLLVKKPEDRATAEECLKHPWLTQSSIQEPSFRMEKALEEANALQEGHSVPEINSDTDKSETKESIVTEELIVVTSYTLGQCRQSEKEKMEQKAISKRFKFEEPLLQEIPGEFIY
T13 sequence (P14616 27-1297): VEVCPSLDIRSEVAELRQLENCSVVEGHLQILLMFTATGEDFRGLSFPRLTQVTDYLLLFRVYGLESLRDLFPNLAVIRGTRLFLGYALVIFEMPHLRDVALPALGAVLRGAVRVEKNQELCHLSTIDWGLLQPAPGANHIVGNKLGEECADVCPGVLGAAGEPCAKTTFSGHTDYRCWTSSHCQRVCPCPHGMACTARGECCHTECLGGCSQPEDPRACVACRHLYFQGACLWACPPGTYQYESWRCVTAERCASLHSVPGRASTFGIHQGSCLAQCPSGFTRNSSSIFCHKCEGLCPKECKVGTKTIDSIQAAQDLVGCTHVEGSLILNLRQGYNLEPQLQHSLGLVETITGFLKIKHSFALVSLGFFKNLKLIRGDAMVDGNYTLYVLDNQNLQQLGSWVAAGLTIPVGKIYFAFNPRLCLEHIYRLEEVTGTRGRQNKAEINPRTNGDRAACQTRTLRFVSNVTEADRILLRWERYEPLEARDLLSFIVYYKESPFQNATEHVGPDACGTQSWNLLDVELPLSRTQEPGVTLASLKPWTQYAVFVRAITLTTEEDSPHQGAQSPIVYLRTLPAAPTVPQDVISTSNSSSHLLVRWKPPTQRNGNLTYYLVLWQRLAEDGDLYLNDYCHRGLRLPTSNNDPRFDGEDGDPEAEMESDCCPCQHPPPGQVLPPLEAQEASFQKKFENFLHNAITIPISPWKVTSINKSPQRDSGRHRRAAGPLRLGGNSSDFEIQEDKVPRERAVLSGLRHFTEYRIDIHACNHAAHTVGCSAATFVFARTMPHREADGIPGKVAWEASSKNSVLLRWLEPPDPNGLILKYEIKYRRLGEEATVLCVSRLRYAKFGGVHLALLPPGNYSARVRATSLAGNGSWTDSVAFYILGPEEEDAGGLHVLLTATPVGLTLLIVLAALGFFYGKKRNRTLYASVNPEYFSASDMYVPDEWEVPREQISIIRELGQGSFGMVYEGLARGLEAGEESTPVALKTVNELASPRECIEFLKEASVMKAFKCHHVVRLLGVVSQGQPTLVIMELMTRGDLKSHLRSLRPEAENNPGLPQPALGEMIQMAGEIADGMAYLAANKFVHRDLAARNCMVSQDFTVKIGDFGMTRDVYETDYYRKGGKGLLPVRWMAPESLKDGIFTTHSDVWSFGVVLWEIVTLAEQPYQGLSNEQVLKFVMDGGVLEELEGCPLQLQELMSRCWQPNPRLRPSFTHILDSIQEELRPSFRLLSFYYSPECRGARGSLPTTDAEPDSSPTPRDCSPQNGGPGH
T14 sequence (P51617 whole entry): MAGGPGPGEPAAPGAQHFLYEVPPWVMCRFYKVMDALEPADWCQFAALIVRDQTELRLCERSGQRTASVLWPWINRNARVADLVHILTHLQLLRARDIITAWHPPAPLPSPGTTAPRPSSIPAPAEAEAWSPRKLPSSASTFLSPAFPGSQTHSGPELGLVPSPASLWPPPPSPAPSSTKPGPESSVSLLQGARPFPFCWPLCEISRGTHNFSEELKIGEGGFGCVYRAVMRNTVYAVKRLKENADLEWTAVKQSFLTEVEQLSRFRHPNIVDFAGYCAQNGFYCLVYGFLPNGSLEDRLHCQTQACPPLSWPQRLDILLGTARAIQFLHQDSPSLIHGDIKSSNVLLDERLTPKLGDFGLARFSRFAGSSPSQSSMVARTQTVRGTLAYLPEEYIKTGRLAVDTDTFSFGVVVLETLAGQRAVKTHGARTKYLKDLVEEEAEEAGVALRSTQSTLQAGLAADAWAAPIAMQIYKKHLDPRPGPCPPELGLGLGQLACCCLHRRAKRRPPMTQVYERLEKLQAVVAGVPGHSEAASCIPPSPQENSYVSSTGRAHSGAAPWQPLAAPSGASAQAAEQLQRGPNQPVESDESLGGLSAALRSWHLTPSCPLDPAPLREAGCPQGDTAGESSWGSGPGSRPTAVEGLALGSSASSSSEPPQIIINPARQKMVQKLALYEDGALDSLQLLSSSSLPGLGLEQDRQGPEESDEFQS
T20 sequence (P51817 whole entry): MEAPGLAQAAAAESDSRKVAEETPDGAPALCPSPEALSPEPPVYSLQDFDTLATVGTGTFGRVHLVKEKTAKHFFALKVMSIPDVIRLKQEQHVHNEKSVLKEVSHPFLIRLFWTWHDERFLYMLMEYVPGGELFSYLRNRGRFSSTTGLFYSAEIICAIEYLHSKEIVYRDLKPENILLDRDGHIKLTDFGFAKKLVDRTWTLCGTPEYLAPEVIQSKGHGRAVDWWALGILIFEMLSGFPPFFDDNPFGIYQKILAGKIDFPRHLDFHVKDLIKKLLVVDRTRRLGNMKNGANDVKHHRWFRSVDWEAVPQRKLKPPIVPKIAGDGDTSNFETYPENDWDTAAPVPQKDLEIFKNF

`NCCCNc1nc2c(Br)c(Br)c(Br)c(Br)c2[nH]1` [Compound 11, N-(3-aminopropyl)-4,5,6,7-tetrabromo-1H-benzo[d]imidazol-2-amine] was tested, and the remaining binding at 1 µM [1] was 97%, the remaining binding at 1 µM [2] was 64% and the remaining binding at 1 µM [3] was 100%. The remaining binding at 1 µM [4] was 100%, the “% binding” value [5] was 85% and the “% binding” value [6] was 24%. The remaining binding at 1 µM [7] was 80%, the remaining binding at 1 µM [8] was 90% and the “% binding” value [9] was 96%. It also gave a remaining binding at 1 µM [10] of 100%, a remaining binding at 1 µM [11] of 75% and a remaining binding at 1 µM [12] of 4.5%. For the same molecule, the “% binding” value [13] was 100%, the “% binding” value [14] was 100% and the remaining binding at 1 µM [15] was 100%. The remaining binding at 1 µM [16] was 100%, the remaining binding at 1 µM [17] was 100% and the remaining binding at 1 µM [18] was 52%. The remaining binding at 1 µM [19] was 78%, the “% binding” value [20] was 84% and the “% binding” value [21] was 56%. It also gave a remaining binding at 1 µM [22] of 100%, a remaining binding at 1 µM [23] of 100% and a remaining binding at 1 µM [24] of 97%. For the same molecule, the remaining binding at 1 µM [25] was 89%, the remaining binding at 1 µM [26] was 99% and the remaining binding at 1 µM [27] was 100%. The remaining binding at 1 µM [28] was 85%, the remaining binding at 1 µM [29] was 94% and the remaining binding at 1 µM [30] was 77%. The remaining binding at 1 µM [31] was 100%, the “% binding” value [32] was 100% and the remaining binding at 1 µM [33] was 100%. The remaining binding at 1 µM [34] was 87% and the remaining binding at 1 µM [35] was 100%.
